Where two headings read alike, the source gives them in different places.
Legend:
APP695‐HiBiT = target: T1, APP695‐HiBiT (Homo sapiens, UniProt P05067+Q14444); test: APP695-HiBiT luminescence assay in HEK293 cells; assay type: cell-based
T1 construct: expressed in transfected cells; host or cells: HEK293, lentiviral transduction, hygromycin-selected single clones (#3, #9)
Source text: We previously reported CAPRIN1‐targeted molecular degraders that bind to CAPRIN1 and F‐box protein 42 (FBXO42), promoting FBXO42‐mediated proteasomal degradation of small ubiquitin‐related modifier 1 (SUMO1), an oncoprotein, in human cancers. CAPRIN1 is a neuronal RNA‐binding protein involved in neuronal development and neurodegeneration. CAPRIN1 was reported to be a binding partner of APP [28]. Therefore, we thought to investigate whether CAPRIN1‐targeted degraders could promote APP degradation in APP‐expressing cell models. To establish screening models, we tagged wild‐type APP695 (APP695), the predominant neuronal isoform, with the small HiBiT tag (APP695‐HiBiT) and expressed APP695‐HiBiT in HEK293 cells. Cell lysates were analyzed using a luminescence‐based assay of HiBiT‐tagged protein [30], identifying clone #3 and #9 with robust APP695‐HiBiT expression (Figure S1A). Western blotting and ELISA confirmed intracellular expression of APP695 and extracellular release of Aβ42 in these clones (Figure S1B,C).
HEK293 cells were purchased from the American Type Culture Collection (ATCC). […] Once expanded, clones were analyzed by ELISA for amyloid beta 42 (Aβ42), western blot for APP expression, and Hibit‐lytic assay (Promega). […]

Aβ42 = Aβ42 ELISA of conditioned media, iPSC-derived neurons; assay type: cell-based, human; details: for IC50: Homo sapiens, Neuron
Source text: The human iPSC SAD2.3 (UCSD234i‐SAD2‐3) and HVRDi002A were purchased from Wicell, UKBi011A from the European Bank for induced pluripotent stem cells, Sigma, AG25367, AG25370, AG27606, AG27608, AG27609, AG28049, AG28262, and AG27602 from Coriell. All iPSCs were maintained and expanded on Matrigel (Growth factor reduced Matrigel matrix, Corning) in mTeSR1 complete medium (mTeSR1 medium + 5X supplement, Stem Cell Technologies). For iPSC‐Ns transgene delivery, each iPSC line was transduced with lentiviral particles for pLVX‐UbC‐rtTA‐Ngn2:2A:Ascl1 […]), followed by selection in the presence of puromycin ([…], Gibco). To initiate conversion, iPSCs were differentiated into neurons using the established Ascl1/Mash1 (33) and Neurogenin 2 (Ngn2) (34) protocols.
iPSC‐Ns or HEK‐APP695WT were treated with drugs, and secreted Aβ42 peptides inculture soup were quantified using the Human Amyloid β1‐42 human ELISA kit (Thermo Fisher) according to the manufacturer's protocol. Mouse brain extraction was performed as previously described, with minor modifications. Mouse brain tissues were homogenized at a 1:10 weight‐to‐volume ratio in Tris‐buffered saline (TBS; 50 mM Tris, pH 7.4, 150 mM NaCl) supplemented with 2 mM EDTA and protease inhibitors. TBS‐homogenized brains were centrifuged for 1 h at 16 000 g. To extract total Aβ, including insoluble fractions, formic acid was added to a final concentration of 70%, and the samples were thoroughly mixed by pipetting. Homogenates were centrifuged at 100 000 g for 1 h at 4°C, and the resulting supernatants were collected. Prior to quantification, formic acid‐containing samples were neutralized with 1 M Tris base (pH 11). Aβ40 and Aβ42 levels were measured using human‐specific ELISA kits (Invitrogen) and normalized to total protein concentrations determined by the BCA assay (Thermo Scientific). For Aβ quantification in 3D organoids, 3D organoids’ processing and ELISA analysis were performed with minor modifications from previously described protocols. Briefly, cerebral organoids were lysed in RIPA buffer supplemented with protease and phosphatase inhibitor cocktails (Sigma), followed by sonication and incubation on ice for 60 min. Lysates were centrifuged at 13 000 rpm for 1 h at 4°C, and the supernatants were collected as the RIPA‐soluble fraction. The remaining pellets were resuspended in 70% formic acid, sonicated, and subsequently neutralized with Tris buffer to obtain the formic acid‐solubilized fraction. Aβ42 levels in both fractions were measured using human‐specific ELISA kits (Thermo Fisher) according to the manufacturer's instructions. Formic acid extracts were appropriately neutralized prior to ELISA. Aβ levels were normalized to total protein concentration determined by BCA assay.

[1] = 120 h, AG27606 neurons, 5-day treatment, ELISA, normalized to DMSO, read-out: IC50, Aβ42 dose–response

T1 sequence (P05067 18-695 isoform P05067-4 limits assumed): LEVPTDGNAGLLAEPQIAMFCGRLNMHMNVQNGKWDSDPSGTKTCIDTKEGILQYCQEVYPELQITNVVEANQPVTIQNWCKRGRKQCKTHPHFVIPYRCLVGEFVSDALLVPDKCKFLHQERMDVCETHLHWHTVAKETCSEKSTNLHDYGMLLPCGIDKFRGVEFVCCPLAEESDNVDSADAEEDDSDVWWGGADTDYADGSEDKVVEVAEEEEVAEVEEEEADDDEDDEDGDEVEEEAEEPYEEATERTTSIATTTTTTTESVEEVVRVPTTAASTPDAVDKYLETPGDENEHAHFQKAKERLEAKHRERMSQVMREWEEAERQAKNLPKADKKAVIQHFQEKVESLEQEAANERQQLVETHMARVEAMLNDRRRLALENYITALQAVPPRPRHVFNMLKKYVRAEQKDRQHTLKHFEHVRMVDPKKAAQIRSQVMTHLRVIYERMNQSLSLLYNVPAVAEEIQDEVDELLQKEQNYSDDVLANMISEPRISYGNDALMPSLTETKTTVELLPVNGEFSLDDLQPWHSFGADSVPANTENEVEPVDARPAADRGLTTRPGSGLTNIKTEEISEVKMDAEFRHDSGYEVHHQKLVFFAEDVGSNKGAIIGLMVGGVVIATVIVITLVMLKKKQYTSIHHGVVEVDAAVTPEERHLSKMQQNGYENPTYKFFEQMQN
T1 sequence (Q14444 2-709 limits assumed): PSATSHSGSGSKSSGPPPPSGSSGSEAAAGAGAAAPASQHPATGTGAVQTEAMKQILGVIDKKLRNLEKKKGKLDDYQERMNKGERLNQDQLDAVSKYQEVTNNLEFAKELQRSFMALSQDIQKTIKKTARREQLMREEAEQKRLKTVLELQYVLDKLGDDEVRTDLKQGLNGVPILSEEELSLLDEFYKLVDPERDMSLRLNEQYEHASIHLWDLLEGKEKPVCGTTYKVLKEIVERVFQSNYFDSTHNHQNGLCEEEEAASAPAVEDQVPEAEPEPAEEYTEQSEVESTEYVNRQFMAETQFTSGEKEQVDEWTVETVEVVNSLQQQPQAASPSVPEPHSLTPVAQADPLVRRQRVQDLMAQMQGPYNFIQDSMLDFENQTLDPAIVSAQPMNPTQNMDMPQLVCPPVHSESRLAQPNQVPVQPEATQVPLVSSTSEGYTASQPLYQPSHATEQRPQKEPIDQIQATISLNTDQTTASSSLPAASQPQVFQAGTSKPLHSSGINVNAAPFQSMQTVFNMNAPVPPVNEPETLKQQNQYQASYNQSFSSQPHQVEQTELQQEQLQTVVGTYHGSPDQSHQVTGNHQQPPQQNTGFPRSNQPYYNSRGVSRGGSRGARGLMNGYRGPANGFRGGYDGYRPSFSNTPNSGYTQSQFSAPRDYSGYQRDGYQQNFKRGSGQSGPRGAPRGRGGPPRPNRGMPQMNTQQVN

Structure (SMILES)	APP695-HiBiT levels in library screen (APP695‐HiBiT; 10 µM, 24 h, APP695-HiBiT clones, vs DMSO)	Aβ42 secretion across iPSC-Ns from sAD, fAD and non-AD donors (Aβ42; 10 µM, 72 h)	IC50 (Aβ42; [1])	IC50 (Aβ42; 120 h, sAD2.3 neurons, 5 days treatment, ELISA, read-out: IC50, relative Aβ42 levels in conditioned media)	IC50 (Aβ42; SAD2.3-Ns and AG27606-Ns, read-out: IC50 values, Aβ42 secretion)	Aβ42 levels in culture media (Aβ42; sAD2.3 neurons, 10 µM, 72 h)	APP695-HiBiT levels, dose and time course (APP695‐HiBiT; HEK-APP695-HiBiT cells)
N#Cc1cccc(NC(=O)Nc2nc3ccc(C(=O)N4CCOCC4)cc3s2)c1 [compound 0043]	more effective	effectively lowered Aβ42 secretion	2100 nM	1800 nM	1800 to 2100 nM	reduced Aβ42 levels	
COc1cccc(NC(=O)Nc2nc3ccc(C(=O)N4CCOCC4)cc3s2)c1 [compound 0152]		consistently reduced both APP and Aβ42 levels	900 nM				dose‐ and time‐dependent reduction in APP695‐HiBiT levels
